pEC50: −log10 of the molar value.

For the first experiment, the system named is Human RSV-A (“Long” strain). Nature of the experiment: RSV in vitro cytoprotection assay (CPE, ATPlite) in HEp-2 cells. The format is cell-based. The conditions noted are these: human respiratory syncytial virus, 96 h; HEp-2 cells, 4-day incubation, ATPlite readout; read-out: Human RSV-A (“Long” strain) EC50. The gist of the method: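 HEp-2 cells (8,000/well) given 2-fold serial compound dilutions in duplicate, then infected with sucrose-stabilised RSV-A Long stock. After 4 days, cell viability read by ATPlite luminescence, with a parallel uninfected plate for cytotoxicity. EC50 binned A<0.01 μM, B 0.01-0.05 μM, C>0.05 μM.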
Turning to `Cc1cnc(N2CC3(CCOCC3)C2)c(C(=O)Nc2ccc(C(=O)N3CCc4cc(NC(=O)c5c(C)cccc5C)sc4-c4ccccc43)cc2)c1` [Example 286], the pEC50 is 7.30 to 8.00.
The same measure, in the same setting: in the case of `Cc1cnc(N2CC3(CCOCC3)C2)c(C(=O)Nc2ccc(C(=O)N3CCc4cc(NC(=O)c5c(F)cccc5C(F)(F)F)sc4-c4ccccc43)cc2)c1` [Example 287] it was 7.30 to 8.00.
`Cc1cnc(N2CC3(CCOCC3)C2)c(C(=O)Nc2ccc(C(=O)N3CCc4cc(NS(=O)(=O)c5c(F)cccc5F)sc4-c4ccccc43)cc2)c1` [Example 288]: the pEC50 was below 7.30.
As to `Cc1cnc(N2CC3(CCOCC3)C2)c(C(=O)Nc2ccc(C(=O)N3CCc4cc(NS(=O)(=O)c5c(C)cccc5F)sc4-c4ccccc43)cc2)c1` [Example 289], the pEC50 was below 7.30.
Same read-out and setting: in the case of `Cc1cnc(N2CC3(CCOCC3)C2)c(C(=O)Nc2ccc(C(=O)N3CCc4cc(NS(=O)(=O)c5ccccc5F)sc4-c4ccccc43)cc2)c1` [Example 290] it was below 7.30; in that of `Cc1cnc(N2CC3(CCOCC3)C2)c(C(=O)Nc2ccc(C(=O)N3CCc4cc(NS(=O)(=O)c5c(F)cccc5Cl)sc4-c4ccccc43)cc2)c1` [Example 291], below 7.30.
The same measure, in the same setting: in the case of `Cc1cnc(N2CC3(CCOCC3)C2)c(C(=O)Nc2ccc(C(=O)N3CCc4cc(NC(=O)OC5CCC5)sc4-c4ccccc43)cc2)c1` [Example 292] it was above 8.00; in that of `Cc1cnc(N2CC3(CCOCC3)C2)c(C(=O)Nc2ccc(C(=O)N3CCc4cc(NC(=O)OC5CCCC5)sc4-c4ccccc43)cc2)c1` [Example 293], 7.30 to 8.00.
As for `Cc1cnc(N2CC3(CCOCC3)C2)c(C(=O)Nc2ccc(C(=O)N3CCc4cc(NC(=O)OC5CCCCC5)sc4-c4ccccc43)cc2)c1` [Example 294], the pEC50 was 7.30 to 8.00.
`Cc1cnc(N2CC3(CCOCC3)C2)c(C(=O)Nc2ccc(C(=O)N3CCc4cc(NC(=O)OCC(F)(F)F)sc4-c4ccccc43)cc2)c1` [Example 295]: the pEC50 was above 8.00.
As for `Cc1cnc(N2CC3(CCOCC3)C2)c(C(=O)Nc2ccc(C(=O)N3CCc4cc(NC(=O)Oc5ccccc5)sc4-c4ccccc43)cc2)c1` [Example 296], the pEC50 is 7.30 to 8.00.
Take `Cc1cnc(N2CC3(CCOCC3)C2)c(C(=O)Nc2ccc(C(=O)N3CCc4cc(NC(=O)OC(C)C)sc4-c4ccccc43)cc2)c1` [Example 297]: the pEC50 was above 8.00.
On the same count and under the same terms, to `Cc1ccc(C(=O)Nc2ccc(C(=O)N3CCc4cc(NC(=O)OC5CCC5)sc4-c4ccccc43)cc2)c(N2CC3(CCOCC3)C2)n1` [Example 298] belongs 7.30 to 8.00; to `Cc1ccc(C(=O)Nc2ccc(C(=O)N3CCc4cc(NC(=O)OC5CCCC5)sc4-c4ccccc43)cc2)c(N2CC3(CCOCC3)C2)n1` [Example 299], 7.30 to 8.00.
The same measure, in the same setting: in the case of `Cc1ccc(C(=O)Nc2ccc(C(=O)N3CCc4cc(NC(=O)OC5CCCCC5)sc4-c4ccccc43)cc2)c(N2CC3(CCOCC3)C2)n1` [Example 300] it was below 7.30; in that of `Cc1ccc(C(=O)Nc2ccc(C(=O)N3CCc4cc(NC(=O)OCC(F)(F)F)sc4-c4ccccc43)cc2)c(N2CC3(CCOCC3)C2)n1` [Example 301], 7.30 to 8.00; in that of `Cc1ccc(C(=O)Nc2ccc(C(=O)N3CCc4c(sc(NC(=O)c5c(F)cccc5F)c4F)-c4ccccc43)cc2)c(N2CC3(CCOCC3)C2)n1` [Example 303], 7.30 to 8.00.
On the same count and under the same terms, to `Cc1cnc(N2CC3(CCOCC3)C2)c(C(=O)Nc2ccc(C(=O)N3CCc4c(sc(NC(=O)c5c(F)cccc5F)c4F)-c4ccccc43)cc2)c1` [Example 304] belongs above 8.00.
For `Cc1cnc(N2CC3(CCOCC3)C2)c(C(=O)Nc2ccc(C(=O)N3CCc4c(sc(NC(=O)c5c(F)cccc5Cl)c4F)-c4ccccc43)cc2)c1` [Example 305], the pEC50 is above 8.00.
On the same count and under the same terms, to `Cc1cnc(N2CC3(CCOCC3)C2)c(C(=O)Nc2ccc(C(=O)N3CCc4c(sc(NC(=O)c5c(F)cncc5F)c4F)-c4ccccc43)cc2)c1` [Example 306] belongs above 8.00; to `Cc1cnc(N2CC3(CCOCC3)C2)c(C(=O)Nc2ccc(C(=O)N3CCc4c(sc(NC(=O)c5ccccc5F)c4F)-c4ccccc43)cc2)c1` [Example 307], above 8.00.
Regarding `Cc1ccc(C(=O)Nc2ccc(C(=O)N3CCc4c(sc(NC(=O)c5c(C)cccc5F)c4F)-c4ccccc43)cc2)c(N2CC3(CCOCC3)C2)n1` [Example 308], the pEC50 was 7.30 to 8.00.
For the compound `Cc1ccc(C(=O)Nc2ccc(C(=O)N3CCc4c(sc(NC(=O)c5c(F)cccc5Cl)c4F)-c4ccccc43)cc2)c(N2CC3(CCOCC3)C2)n1` [Example 309], the negative-log EC50 (pEC50) is 7.30 to 8.00.
In the case of `Cc1ccc(C(=O)Nc2ccc(C(=O)N3CCc4c(sc(NC(=O)c5c(Cl)cccc5Cl)c4F)-c4ccccc43)cc2)c(N2CC3(CCOCC3)C2)n1` [Example 310], the pEC50 was 7.30 to 8.00.
Same read-out and setting: in the case of `Cc1ccc(C(=O)Nc2ccc(C(=O)N3CCc4c(sc(NC(=O)c5ccccc5F)c4F)-c4ccccc43)cc2)c(N2CC3(CCOCC3)C2)n1` [Example 311] it was 7.30 to 8.00.

The experiment is the same for the next values; noted with them: human respiratory syncytial virus, HEp-2, 96 h, read-out: Human RSV-A (“Long” strain) EC50.
Turning to `Cc1ccc(C(=O)Nc2ccc(C(=O)N3CCc4cc(NC(=O)Oc5ccccc5)sc4-c4ccccc43)cc2)c(N2CC3(CCOCC3)C2)n1` [Example 302], the negative logarithm of the EC50 (pEC50) is below 7.30.

Still in this experiment, the particulars now being: human respiratory syncytial virus, HEp-2; control compound of the RSV assay; read-out: EC50.
With `O=C(Nc1ccccc1F)N[C@H]1N=C(c2ccccc2)c2ccccc2NC1=O` [RSV-604, reference compound], the pEC50 was around 5.62.

For the origin of these results see US11091501B2, “Heterocyclic compounds as RSV inhibitors” (Enanta Pharmaceuticals, Inc., priority 2017, dated 2021).
